Reference: patent US20180099917A1, “REVERSIBLY REDUCIBLE MATERIALS AND USE THEREOF” (University of Kentucky Research Foundation, priority 2016, published 2018)
Values after ≈ are worked out from the molar mass of the structure shown. Where two headings read alike, the source gives them in different places.

Tests used:
[1] = Solubility in acetonitrile; format: physicochemical
Description: In some embodiments, modifying the Z group in formula I above adjusts the solubility of the resulting compound. For example, in one embodiment, compound number 1 has a solubility of 0.1 M in acetonitrile (electrolyte solution), while compound number 2 has a solubility of 0.3 M in acetonitrile.
(§1) Following the formation of reversibly reducible materials as discussed above, various compounds were tested for structure, solubility, and reduction potentials. The results are provided in Table 2 below, with solubility shown in acetonitrile at 23° C. and reduction potentials shown versus ferrocene.

[2] = Reduction potentials versus ferrocene (electrochemistry in acetonitrile); format: physicochemical; settings: for First Reduction / Second Reduction: reduction potential versus ferrocene
Excerpt: The reversibly reducible material according to one or more of the embodiments disclosed herein is soluble in at least one solvent for redox flow batteries. Accordingly, also provided herein is a negolyte for use in redox-flow batteries, the negolyte including the reversibly reducible material and a redox flow battery solvent. Such solvents include, but are not limited to, acetonitrile, propylene glycol, propylene carbonate, dimethyl acetamide, and dimethyl formamide. […] In some embodiments, the negolyte also includes an electrolyte. Suitable electrolytes include, but are not limited to, tetraalkylammonium hexafluorophosphate, perchlorate, tetrafluoroborate, triflate, perfluorobutylsulfonate, lithium salts thereof (e.g., lithium hexafluorophosphate or perchlorate), other organic-soluble materials, any other suitable electrolyte, or a combination thereof. Other suitable electrolytes include, but are not limited to, sulfuric acid and/or potassium hydroxide. An example of the electrochemical trace, with internal ferrocene standard in acetonitrile using tetrabutylammonium hexafluorophosphate electrolyte, is shown in FIG. 1. Although discussed above with regard to non-aqueous redox flow batteries, as will be appreciated by those skilled in the art the instant disclosure is not so limited and may include aqueous redox flow batteries as well.
as §1

[3] = acetonitrile (electrolyte solution), organic solvent or mixture, read-out: solubility in acetonitrile
[4] = organic solvent or mixture, in acetonitrile at 23° C., read-out: Solubility

solubility ([1]; in acetonitrile at 23° C.)	First Reduction [2] [V]	Second Reduction [2] [V]	solubility [1, 3] [mM]	solubility [1, 4] [mM]	solubility compared to compound 2 ([1]; Cl at the R5 position versus identical compound without Cl)	Structure (SMILES)	electrochemistry properties ([2]; second group on the N atom)
–	−1.316	−1.798	300 (≈ 69.4 mg/mL)	300 (≈ 69.4 mg/mL)	–	COCCNC1=CC(=O)c2ccccc2C1=O [Compound 2]	–
Miscible	−1.295	-1.67	–	–	–	COCCN(CCOC)C1=CC(=O)c2ccccc2C1=O	–

Second part, the compound before the results:

Structure (SMILES)	solubility ([1]; in acetonitrile at 23° C.)	First Reduction [2] [V]	Second Reduction [2] [V]	solubility [1, 3] [mM]	solubility [1, 4] [mM]	solubility compared to compound 2 ([1]; Cl at the R5 position versus identical compound without Cl)	electrochemistry properties ([2]; second group on the N atom)
COCCOCCOCCNC1=CC(=O)c2ccccc2C1=O	Miscible	−1.295	−1.784	–	–	–	–
CCN(CC)C1=CC(=O)c2ccccc2C1=O [Compound 11]	–	−1.362	−1.686	700 (≈ 160 mg/mL)	700 (≈ 160 mg/mL)	–	excellent electrochemistry properties
CC(C)CNC1=CC(=O)c2ccccc2C1=O [Compound 1]	–	−1.266	−1.841	100 (≈ 22.9 mg/mL)	100 (≈ 22.9 mg/mL)	–	–
COCCNC1=C(Cl)C(=O)c2ccccc2C1=O [Compound 10]	–	–	–	–	–	increases the solubility	–
